The subject of assay [1] is Cyp1a1. In words: In Vivo Mouse liver and spleen Cyp1a1 Modulation Assay (Example 1E). On the set-up: species or system C57BL/6 mice. Conditions: po, with AHR agonist VAG539 30 mg/kg po, qPCR. How it is done:
C57BL/6 mice, female, 6-8 weeks old, weighing approximately 18-20 g were purchased from Shanghai Lingchang Biological Technology Co., Ltd or other certified vendors and used in the studies. Animal husbandry, feeding and health conditions are according to animal welfare guidelines. VAG539 (30 mg/kg, po) was used as AHRagonist, and test compounds were formulated in suitable vehicles, typically 0.5% methylcellulose).
C57BL/6 mice (n=3 per group) were treated with AHR agonist alone or with AHR agonist and test compounds. Animals were sacrificed at 4 or 10 hours after treatment upon which their livers and spleens were collected and subsequently analyzed by qPCR. Normalized fold induction of cyp1a1 was determined by comparing mCYP1A1 and mGAPDH counts (ct) according to: normalized fold=2^−ΔΔCt. The percent inhibition was calculated according to: […]
(In general: Quantitative PCR measures a nucleic acid by following its amplification.)

Assay [2] addresses T1, AHR (UniProt P35869).
T1 construct: IC50
T1 sequence (P35869 1-848): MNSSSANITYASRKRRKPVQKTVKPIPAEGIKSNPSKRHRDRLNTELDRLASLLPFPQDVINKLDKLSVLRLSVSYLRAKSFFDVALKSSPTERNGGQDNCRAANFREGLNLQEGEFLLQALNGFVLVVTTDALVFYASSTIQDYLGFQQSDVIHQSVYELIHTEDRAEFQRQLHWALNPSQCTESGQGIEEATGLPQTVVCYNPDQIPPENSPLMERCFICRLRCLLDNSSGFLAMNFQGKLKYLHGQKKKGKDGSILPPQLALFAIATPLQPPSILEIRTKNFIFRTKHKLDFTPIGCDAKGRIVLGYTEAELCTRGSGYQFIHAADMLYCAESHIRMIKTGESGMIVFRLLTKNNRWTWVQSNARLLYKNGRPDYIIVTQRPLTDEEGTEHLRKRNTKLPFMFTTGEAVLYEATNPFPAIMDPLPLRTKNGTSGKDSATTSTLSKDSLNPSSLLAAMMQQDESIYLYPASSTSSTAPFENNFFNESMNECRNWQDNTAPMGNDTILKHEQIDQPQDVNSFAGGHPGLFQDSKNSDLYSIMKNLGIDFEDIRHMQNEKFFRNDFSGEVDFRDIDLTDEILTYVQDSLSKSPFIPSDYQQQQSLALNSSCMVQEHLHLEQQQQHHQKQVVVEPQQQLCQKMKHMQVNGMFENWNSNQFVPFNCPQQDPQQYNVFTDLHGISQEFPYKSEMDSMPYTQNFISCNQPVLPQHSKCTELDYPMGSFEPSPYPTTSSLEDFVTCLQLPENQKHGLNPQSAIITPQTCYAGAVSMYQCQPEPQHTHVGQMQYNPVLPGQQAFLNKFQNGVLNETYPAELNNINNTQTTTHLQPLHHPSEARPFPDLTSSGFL
Nature of the assay: DRE-Luciferase Reporter Assay (Example 1A). The note with it: cell line and AHR activating ligand not specified. Format: cell-based, murine or human. How it is done: AHR binds to Dioxin Responsive Elements (DRE) upstream of genes that it activates. One measure of AHR activity is activation of a reporter gene, such as luciferase, downstream of one or multiple DRE elements. Luciferase activity will reflect activation and inhibition of AHR in the cells expressing his reporter.
Murine Hepa1-6 or Hepa-1c1c7 or other murine cell line with a DRE-luciferase reporter either stably or transiently transfected were plated in media in plates (96-well, 384-well or other plates) and incubated overnight at 37° C. in a CO2 incubator. Likewise, human HepG2 or other human cell line with a DRE-luciferase reporter either stably or transiently transfected were plated in media in plates (96-well, 384-well or other plates) and incubated overnight at 37° C. in a CO2 incubator.
The next day, an AHR activating ligand, such as TCDD, kynurenine, ITE (2-(1H-indole-3-ylcarbonyl)-4-thiazolecarboxylic methyl ester), VAF347, BNF (beta-naphthoflavone), FICZ (6-formylindolo(3,2-b) carbazole or other AHR ligands, was added with or without AHR antagonist.
Cells were incubated for 4, 15 or 24 hours or another time point and then lysed for determination of luciferase activity as a read-out of the AHR activation or inhibition. Luciferase was measured with a commercial kit such as the Promega Luciferase kit or any kit or reagents that provide the luciferin substrate for measuring luciferase activity. The level of luciferase with only activating ligand added was the maximum signal while the luciferase with no ligand was the minimum signal. IC50 values were determined as the concentration which inhibits half of the luciferase activity.
(In general: A reporter such as luciferase makes a cellular process visible.)

Assay [3] deals with B16-IDO murine melanoma. Nature of the assay: Efficacy study in the mouse melanoma model B16-IDO (Example 1H). Format: in vivo. Conditions: B16-IDO in C57BL/6 mice, FIG. 4. How it is done:
B16-IDO is a murine melanoma carcinoma cell line that has been engineered to overexpress IDO1 (Holmgaard, 2015 Cell Reports). B16-IDO cells were cultured in DMEM supplemented with 10% FBS. 2×10^5 B16-IDO cells in 50 μl PBS were implanted intradermally in 6-8 week old female, C57BL/6 mice. Dosing for the efficacy study starts 7 days post implant: AHR antagonist I-70 was dosed orally, every day (QD) at or 10 mg/kg for 2 weeks. Anti-PD-1 (BioXcell RMP1-14) was administered every 3rd day, intraperitoneally (IP) at 250 μg/mouse for five total doses. Tumors were monitored by caliper measurement every 2-3 days and body weight measured three times per week.

Assay [4] has as its system CT26 murine colon carcinoma. Nature of the assay: Efficacy study in the mouse colorectal cancer model CT26 (Example 1G). Format: in vivo. The note with it: CT26 in Balb/c mice, FIG. 3. How it is done:
CT26 is a murine colon carcinoma cell line obtained from ATCC. CT26 cells were cultured in RPMI supplemented with 10% FBS. 5×10^5 CT26 cells in 100 μl PBS were implanted subcutaneously in 6-8 week old female, Balb/c mice. Dosing for the efficacy study starts 4 days post implant: AHR antagonist was dosed orally, every day (QD) at or 10 mg/kg for 3 weeks. anti-PD-1 (BioXcell RMP1-14) was twice a week, intraperitoneally (IP) at 10 mg/kg for five total doses. Tumors were monitored by caliper measurement every 2-3 days and body weight measured three times per week.

Where [5] appears, read: 4 h, read-out: Cyp1a1 inhibition, Liver, 4 h.
Where [6] appears, read: 4 h, read-out: Cyp1a1 inhibition, Spleen, 4 h.
Where [7] appears, read: 10 h, read-out: Cyp1a1 inhibition, Liver, 10 h.

Data on four molecules can be found in patent US11358969B2, “Indole AHR inhibitors and uses thereof” (Ikena Oncology, Inc., priority 2017, dated 2022).

SMILES strings stand for the structures. Like-named read-outs stand apart in the source and are kept apart here.

The inhibition is the change of the read-out against control, counted positive when it falls. The IC50 is the point on the concentration scale where inhibition reaches its midpoint. Low readings indicate greater potency in that assay, high ones weaker potency in that assay. With `CC(C)c1cnn2c(NCCc3c[nH]c4ccccc34)cc(-c3cncc(F)c3)nc12` [I-2, N-(2-(1H-indol-3-yl)ethyl)-5-(5-fluoropyridin-3-yl)-3-isopropylpyrazolo[1,5-a]pyrimidin-7-amine], in assay [1] (setting [5]), the inhibition at 30 mg/kg was determined as 50%. The IC50 in assay [2] was less than 500 nM.
For the molecule `CC(C)c1cnn2c(N[C@@H]3CCc4[nH]c5ccccc5c4C3)nc(-c3cncc(F)c3)nc12` [I-40, (3R)—N-[2-(5-Fluoro-3-pyridyl)-8-isopropyl-pyrazolo[1,5-a][1,3,5]triazin-4-yl]-2,3,4,9-tetrahydro-1H-carbazol-3-amine], the inhibition at 5 mg/kg in assay [1] (setting [5]) is 77%; in assay [1] (setting [6]), 34%; in assay [1] (setting [7]), 48%. For the same molecule, the inhibition at 10 mg/kg was determined as 93% in assay [1] (setting [5]), 74% in assay [1] (setting [6]) and 75% in assay [1] (setting [7]). The inhibition at 25 mg/kg in assay [1] (setting [5]) amounted to 98%; in assay [1] (setting [6]) it was 96%; in assay [1] (setting [7]) it was 97%.
With `Cc1cnn2c(NCCc3c[nH]c4ccccc34)cc(-c3cncc(F)c3)nc12` [I-70, 5-(5-Fluoro-3-pyridyl)-N-[2-(1H-indol-3-yl)ethyl]-3-methyl-pyrazolo[1,5-a]pyrimidin-7-amine], the values for the inhibition at 1 mg/kg in assay [1] (setting [5]), in assay [1] (setting [6]) and in assay [1] (setting [7]) were 52%, 38% and 34%, respectively. Besides, the inhibition at 2 mg/kg in assay [1] (setting [5]) was found to be 83%; in assay [1] (setting [6]), 65%; in assay [1] (setting [7]) it was 63%. Also, the values for the inhibition at 5 mg/kg in assay [1] (setting [5]), in assay [1] (setting [6]) and in assay [1] (setting [7]) were 93%, 79% and 96%, respectively. The inhibition at 10 mg/kg in assay [1] (setting [5]) came out at 99%; in assay [1] (setting [6]), 88%; in assay [1] (setting [7]), 81%. For the same molecule, the inhibition at 30 mg/kg in assay [1] (setting [5]) amounted to 98%. Also, the Tumor growth result in assay [3] (I-70 alone, orally QD 10 mg/kg for 2 weeks) was “inhibited”; in assay [3] (I-70 in combination with anti-PD-1 (IP 250 μg/mouse every 3rd day)), “inhibited”; in assay [4] (I-70 alone, orally QD 10 mg/kg for 3 weeks) it was “inhibited”; in assay [4] (I-70 in combination with anti-PD-1 (IP 10 mg/kg twice a week)), “inhibited”.
As for `Cc1cnn2c(N[C@@H]3CCc4[nH]c5ccccc5c4C3)nc(-c3cncc(F)c3)nc12` [I-201, (3R)—N-[2-(5-fluoro-3-pyridyl)-8-methyl-pyrazolo[1,5-a][1,3,5]triazin-4-yl]-2,3,4,9-tetrahydro-1H-carbazol-3-amine], in assay [1] (setting [5]), the inhibition at 5 mg/kg was 58%, the inhibition at 10 mg/kg turned out to be 72% and the inhibition at 25 mg/kg is 86%. Also, in assay [1] (setting [6]), the inhibition at 5 mg/kg came out at 40%, the inhibition at 10 mg/kg was 46% and the inhibition at 25 mg/kg was 72%. In assay [1] (setting [7]), the inhibition at 5 mg/kg was determined as 44%, the inhibition at 10 mg/kg turned out to be 59% and the inhibition at 25 mg/kg turned out to be 97%.
